Source: patent US20100227767A1, “STOCHASTIC CONFINEMENT TO DETECT, MANIPULATE, AND UTILIZE MOLECULES AND ORGANISMS” (priority 2007, published 2010)

Tests used:
[1] = test system: Methicillin Resistant S. aureus (MRSA); conditions: 24 mg/L; cited from earlier work
[2] = test system: Methicillin Sensitive S. aureus (MSSA); conditions: 24 mg/L; cited from earlier work
[3] = test system: Staphylococcus aureus ATCC#25923 (MSSA); assay: antibiotic testing on Mueller Hinton agar plates, MSSA; conditions: 30° C; even after 40 h
Description: Plates were made from Mueller Hinton Agar (Fluka, Switzerland). After autoclaving, the agar was cooled and antibiotics were added and 20 mL plates were poured. For CFX and OXA testing, 50 μL of MRSA and MSSA bacterial culture at 4×10^3 CFU/mL was spread onto separate TSA plates. The plates were incubated at 30° C. After 16.5 h and 40 h the plates were examined for colonies. […] For AMP, ERT, LVF, and VCM, 5 μL of culture at 2×10^4 CFU/mL were spread onto plates, and the plates were incubated at 37° C. for 12 h. After 12 h, growth of colonies on the plates was considered resistance to the antibiotic and no colonies on the plates were considered sensitivity to the antibiotic. For all tests, control plates with no antibiotic were inoculated to ensure that each plate tested received many CFU during inoculation.

[4] = test system: Methicillin Resistant S. aureus (MRSA, ATCC#43300); assay: plug-based microfluidic antibiotic susceptibility screen with alamarBlue viability indicator; conditions: FIG. 2c; breakpoint concentration; negative control VCM, positive control blank
[5] = test system: MSSA; assay: plug-based drug screening in human blood plasma/LB, MSSA; conditions: MSSA in 1:1 human blood plasma/LB; breakpoint concentration; 7.5 h at 37° C
[6] = test system: Methicillin Resistant S. aureus (MRSA, ATCC#43300); assay: macro-scale experiments, MRSA

| SMILES | known inhibition of the strain by CFX [1] | known inhibition of the strain by CFX [2] | appearance of MSSA colonies on antibiotic plates [3] | plug fluorescence compared to positive and negative controls (unpaired t-test) [4] | increase in fluorescence intensity of plugs with antibiotic [5] | inhibition of the S. aureus strain in macro-scale experiments [6] |
| --- | --- | --- | --- | --- | --- | --- |
| CO[C@@]1(NC(=O)Cc2cccs2)C(=O)N2C(C(=O)O)=C(COC(N)=O)CS[C@@H]21 [CFX, cefoxitin] | inhibited | inhibited | did not appear | statistically different than the negative control | – | – |
| CC[C@H]1OC(=O)[C@H](C)[C@@H](O[C@H]2C[C@@](C)(OC)[C@@H](O)[C@H](C)O2)[C@H](C)[C@@H](O[C@@H]2O[C@H](C)C[C@H](N(C)C)[C@H]2O)[C@](C)(O)C[C@@H](C)C(=O)[C@H](C)[C@@H](O)[C@]1(C)O [ERT, erythromycin] | – | – | – | statistically different than the negative control | – | – |
| Cc1onc(-c2ccccc2)c1C(=O)N[C@@H]1C(=O)N2[C@@H]1SC(C)(C)[C@@H]2C(=O)O [OXA, oxacillin] | – | – | did not appear | statistically different than the negative control | – | – |
| CC1(C)S[C@@H]2[C@H](NC(=O)[C@H](N)c3ccccc3)C(=O)N2[C@H]1C(=O)O [AMP, ampicillin] | – | – | – | statistically different than the negative control | no increase in fluorescence intensity | – |
| CN[C@H](CC(C)C)C(=O)N[C@H]1C(=O)N[C@@H](CC(N)=O)C(=O)N[C@H]2C(=O)N[C@H]3C(=O)N[C@H](C(=O)N[C@H](C(=O)O)c4cc(O)cc(O)c4-c4cc3ccc4O)[C@H](O)c3ccc(c(Cl)c3)Oc3cc2cc(c3O[C@@H]2O[C@H](CO)[C@@H](O)[C@H](O)[C@H]2O[C@H]2C[C@](C)(N)[C@H](O)[C@H](C)O2)Oc2ccc(cc2Cl)[C@H]1O [VCM, vancomycin] | – | – | – | statistically different than positive controls | – | inhibited |
